Data from patent US20180289666A1, “FLAVONOLIGNANS FOR TREATMENT OF AUTOIMMUNE INFLAMMATORY DISEASES” (Macau University of Science and Technology, priority 2017, published 2018).
Like-named read-outs stand apart in the source and are kept apart here.

Columns and labels:
AIA rats [1] = conditions: for ESR: day 42, read at 15 min, ± SD
AIA rats [2] = assay: Radiological and histopathological examination of hind paws / ankle joints of AIA rats; format: in vivo, Sprague-Dawley (SD) rats
Protocol: (§1) Disease severity and progression were evaluated by measurements of both hind paw volumes with a plethysmometer chamber (Yiyan technology, Jinan, China) and body weight with a 0.1 g precision balance (Sartorius AG, Göttingen, Germany) every two or three days after arthritis induction. For evaluation the arthritic scoring, the lesions of four paws of each rat (i.e., the arthritic signs) were graded by two separate investigators with a semi-quantitative scale: 0 (normal), 4-8 (mild changes), 8-12 (moderate changes), and 12-16 (severe changes) (van Eden W., et. al., J. E. Coligan, Editor. 2001, John Wiley: New York. p. 1-11). Erythrocyte sedimentation rate (ESR) was determined with ICSH (International Council for Standardization in Hematology) selected method with little modifications at day 42. Briefly, 120 μl of blood sample was taken directly and put into 30 μl of 0.109 mol/L sodium citrate, mixed well, and then transferred into a 1.0 mm×100 mm capillary tube (West China Medical University, ChengDu, China). The tubes were held obliquely at an angle of […] and the erythrocyte sedimentation rate was recorded at 15 min. The cytokines levels including IL-1β, TNF-α, IL-17, IL-33, MMP-9, TIMP-1 and PGE2 in serum were measured using commercially available ELISA kits according to the manufacturers instructions. At the end of the experiments, rat knee images were measured (mean of three readings per knee, Meinaite digital calliper, ShangHai, China) using a IVIS Lumina XRMS Series (PerkinElmer, America) (Esser, R. E., et al., Arthritis Rheum, 1995, 38(1): p. 129-38).
For histopathological assessment, arthritic paws were collected on day 42 after X-ray check, fixed with 10% phosphate buffered saline (PBS) buffered formalin, and decalcified for 3 days in formic acid. Sections from paraffin-embedded tissue were stained with hematoxylin and eosin (H&E). The obtained plasma was stored in −70° C. for metabolomic studies. The relative organ weight ratios (such as liver index, spleen index, kidney index, lung index) were calculated by dividing the weight of each organ with the body weight.

[3] = test system: IL-1β, TNF-α, IL-33, MMP-9, TIMP-1 and PGE2 in serum; assay: Serum cytokine levels by ELISA in AIA rats; format: in vivo, Sprague-Dawley (SD) rats; conditions: 42 days treatment, versus vehicle-treated AIA rats
Protocol: as §1

AIA rats [4] = assay: Assessment of liver abnormality and lipid profile in AIA model; format: in vivo, Sprague-Dawley (SD) rats
Protocol: Serum ALT, AST, ALP, GGT and total bilirubin were measured by automatic biochemical analyzer (Toshiba Corporation, Tokyo, Japan). Lipids profile including TG, TC, HDL-C, LDL-C/vLDL-C and free fatty acids were measured in the serum. After animals were sacrificed, tissues of liver were fixed in 10% formalin solution, cleared in xylene, embedded in paraffin blocks from which 5 micron-thick sections were obtained. Sections were stained with H&E dye and examined for pathological changes under light microscope by a pathologist blind to the specimens.

[5] = test system: MCD diet induced NASH mice; assay: MCD diet induced NASH mice: body and liver weight, liver histology, serum and liver biomarkers; format: in vivo, C57Bl/6 mice; conditions: for Ballooning (histological score) / Inflammation (histological score) / Steatosis (histological score): MCD diet induced NASH mice, n = 6-8
Protocol: Male wild-type (WT) mice C57Bl/6 were fed either MCS chow diet (Trophic Animal Feed High-tech Co., Ltd, China 20, #TP 3005GS); MCD diet (Trophic Animal Feed High-tech Co., Ltd, China, #TP 3005G) for 8 weeks. Animals were randomly divided into four groups (n=10): 1) controls, fed a standard control MCS diet; 2) […] fed a high-fat MCD diet; 3) rats fed the MCD diet treated with Silybin (150 mg/kg, oral) and 4) rats fed the MCD diet treated with Silybin (300 mg/kg, oral). Silybin was dissolved with solvent of 35% PEG400: 15% Cremophor EL: 5% ethanol: 45% saline. Body weight was intermittently monitored during the diet-induction period and every two or three days during the intervention period.
At the end of the 8 weeks, mice were sacrificed under ether anesthesia. The liver were immediately removed and weighed. A large portion of liver was snap-frozen in the liquid N2 with remaining tissue was fixed in 10% buffer formalin, processed and embedded in paraffin for histological examination after H&E staining. For evaluation of steatohepatitis, the level of ALT, AST, TG, and TC were determined according to manufacturer's instructions with commercial kits. Moreover, histological assessment and scoring according to standardized criteria were carried out by a pathologist blinded to the study (Kleiner, D. E., et al., Hepatology, 2005, 41(6): p. 1313-21). The cytokines levels in serum were measured using commercially available ELISA kits including TNF-α, and IL-6 as well as SOD.

[6] = AIA rats, Silybin 200 mg/kg oral, day 42
[7] = MCD diet NASH mice, versus vehicle treated MCD diet model group

Structure (SMILES): COc1cc([C@H]2Oc3cc([C@H]4Oc5cc(O)cc(O)c5C(=O)[C@@H]4O)ccc3O[C@@H]2CO)ccc1O (stereo in doubt) [Silybin]
- ESR (AIA rats [1]; AIA rats, Silybin 100 mg/kg oral daily): 34.35 ± 9.25 mm
- ESR (AIA rats [1]; AIA rats, Silybin 200 mg/kg oral daily): significantly (P<0.001) reduced
- ESR (AIA rats [1]; AIA rats, Silybin 200 mg/kg oral daily, listed as SB): 28.09 ± 11.14 mm
- arthritis score (AIA rats [1]; [6]): 7.60
- paw volume (AIA rats [1]; [6]): 3.02 mL
- relative organ weight ratio (such as liver index, spleen index, kidney index, lung index) (AIA rats [1]; rat, in vivo): reversed changes
- cartilage and joint destruction of the arthritic joints (radiographs) (AIA rats [2]; Silybin 100 mg/kg or 200 mg/kg, day 42): ameliorated
- infiltration of inflammatory cells, synovial hyperplasia (AIA rats [2]; ankle joint sections, H&E): diminished
- histological grade of representative ankle joint sections (AIA rats [2]; day 42, H&E, FIG. 2C (MTX; Silybin 200 mg/kg), vehicle-treated AIA grade 2/3): 0
- serum level of IL-1β [3]: significant decrease
- serum level of MMP-9 [3]: significant decrease
- serum level of PGE2 [3]: significant decrease
- serum level of TIMP-1 [3]: significant decrease
- serum level of TNF-α [3]: significant decrease
- histopathological assessment of liver tissue (AIA rats [4]; H&E liver sections): preserved the normal architecture of hepatocytes with light congestion of central vein
- dyslipidemia (serum lipid profile) (AIA rats [4]; Silybin 200 mg/kg): successfully improved
- ALP level (AIA rats [4]; Silybin 200 mg/kg, P<0.001): markedly reduced
- AST level (AIA rats [4]; Silybin 200 mg/kg, P<0.05): markedly reduced
- body weight ([5]; MCD diet NASH mice, Silybin 300 mg/kg): no effect
- liver/body weight ratio ([5]; MCD diet NASH mice, Silybin 300 mg/kg, P<0.05): moderate decrease
- scores of steatosis, inflammation and ballooning ([5]; MCD diet NASH mice, Silybin treated versus MCD diet group, P<0.01): lower scores
- cytokines levels [5, 7]: significantly restored
- lipid profiles [5, 7]: significantly restored
- oxidative stress levels [5, 7]: significantly restored
- serum transaminase [5, 7]: significantly restored
- Ballooning (histological score) ([5]; Silybin 150 mg/kg oral): 0.96 ± 0.04
- Inflammation (histological score) ([5]; Silybin 150 mg/kg oral): 0.92 ± 0.10
- Steatosis (histological score) ([5]; Silybin 150 mg/kg oral): 1.00 ± 0
- Ballooning (histological score) ([5]; Silybin 300 mg/kg oral): 0.83 ± 0.09
- Inflammation (histological score) ([5]; Silybin 300 mg/kg oral): 0.88 ± 0.12
- Steatosis (histological score) ([5]; Silybin 300 mg/kg oral): 0.92 ± 0.13
